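Growth conditions: 96-well plates. Treatment: test compound, 48 hours, 5 concentrations. Analysis: linear interpolation between bracketing concentrations; unreached endpoints set to highest concentration. GI50 = concentration required for 50% inhibition of growth.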 Activity calls are given as the source filed them. No stated cut-off is given here; in the data, active = GI50 up to about 1.1 µM and inactive = higher.
How the values were obtained:
Test in all cases: NCI anticancer screen, dose series, 48 h
RXF 631 = test system: RXF 631
DMS-114 = test system: DMS-114
XF498 = test system: XF498
DMS-273 = test system: DMS-273
HOP-18 = test system: HOP-18
LXFL 529 = test system: LXFL 529
SNB-78 = test system: SNB-78
DLD-1 = test system: DLD-1
KM-20L2 = test system: KM-20L2

SMILES | GI50 (RXF 631) | GI50 (DMS-114) | GI50 (XF498) | GI50 (DMS-273) | GI50 (HOP-18) | GI50 (LXFL 529) | GI50 (SNB-78) | GI50 (DLD-1) | GI50 (KM-20L2)
CC1CC(=O)c2c(ccc3c2C(=O)c2cccc(O)c2C3=O)C1 (stereo unspecified) | 13.2 µM (inactive) | 6.38 µM (inactive) | 12.6 µM (inactive) | 4.48 µM (inactive) | 6.58 µM (inactive) | 4.31 µM (inactive) | 7.29 µM (inactive) | 2.94 µM (inactive) | 
CCCC(O)c1ccc2[nH]c3c(C)cc([N+](=O)[O-])c(C)c3c2c1 (stereo unspecified) |  | > 100 µM (inactive) | > 100 µM (inactive) | 21.3 µM (inactive) | > 100 µM (inactive) |  | > 100 µM (inactive) | 54.1 µM (inactive) | 
N#Cc1cccc(C2C(=O)c3ccc(C(=O)c4ccc5c(c4)C(=O)N(c4ccc(Oc6ccc(N7C(=O)c8ccc(C(=O)c9ccc%10c(c9)C(=O)N(c9cccc(C#N)c9)C%10=O)cc8C7=O)cc6)cc4)C5=O)cc3C2=O)c1 (stereo unspecified) | > 100 µM (inactive) | > 100 µM (inactive) | > 100 µM (inactive) | > 100 µM (inactive) |  | > 100 µM (inactive) |  | > 100 µM (inactive) | > 100 µM (inactive)
O=C(Nc1ccc(F)cc1)C(=O)C(C1OC(=O)c2ccccc21)[N+](=O)[O-] (stereo unspecified) |  | > 100 µM (inactive) | > 100 µM (inactive) |  |  | > 100 µM (inactive) | > 100 µM (inactive) | > 100 µM (inactive) | > 100 µM (inactive)
C[Si](C)(C)/C=C/CCC(C=O)(CCCl)c1ccccc1 (stereo unspecified) |  | 19.5 µM (inactive) | 18.7 µM (inactive) | 19.4 µM (inactive) | 27.4 µM (inactive) | 30.1 µM (inactive) | 23.8 µM (inactive) | 29.5 µM (inactive) | 28.8 µM (inactive)
CCCCNC(=S)Nn1c(-c2ccccc2)nc2ccccc2c1=O |  | 87.3 µM (inactive) |  | > 100 µM (inactive) | > 100 µM (inactive) | > 100 µM (inactive) |  | > 100 µM (inactive) | 
COC(=O)C1=C(C(=O)OC)C(C(=O)OC)C(C(=O)OC)=C1C(=O)OC | > 100 µM (inactive) | > 100 µM (inactive) |  | > 100 µM (inactive) | > 100 µM (inactive) | > 100 µM (inactive) |  | > 100 µM (inactive) | > 100 µM (inactive)
Nn1c(-c2ccccc2)nc2ccc(Br)cc2c1=O | 59 µM (inactive) | 31.8 µM (inactive) | 13.7 µM (inactive) | 40.2 µM (inactive) | 17.5 µM (inactive) | 34 µM (inactive) | 85.7 µM (inactive) | 35.3 µM (inactive) | > 100 µM (inactive)
NC(=O)C(=O)C1CCC2=C(Sc3ccccc3N2)C1=O (stereo unspecified) | > 100 µM (inactive) | > 100 µM (inactive) |  |  |  | > 100 µM (inactive) | > 100 µM (inactive) | > 100 µM (inactive) | > 100 µM (inactive)
CCOC(=O)C(CC/C=C\c1ccccc1)N1CCC[C@H]1C(=O)OC (stereo partly specified) |  | 59.6 µM (inactive) | > 100 µM (inactive) | > 100 µM (inactive) | > 100 µM (inactive) | > 100 µM (inactive) | > 100 µM (inactive) | > 100 µM (inactive) | > 100 µM (inactive)
COC(=O)C1(C(=O)OC)CC(=O)c2cc3c(cc2-c2c(cc(OC)c(OC)c2OC)C1)OCO3 | > 211 µM (inactive) |  |  | 124 µM (inactive) | 0.0211 µM (active) | 137 µM (inactive) |  | > 211 µM (inactive) | > 211 µM (inactive)
O=C(N/C(=C\c1ccc(/C=C(\NC(=O)c2ccccc2)c2nc3ccccc3s2)cc1)c1nc2ccccc2s1)c1ccccc1 | 7.96 µM (inactive) | 11.4 µM (inactive) |  | 3.71 µM (inactive) | 13.2 µM (inactive) | 2.98 µM (inactive) | 20.8 µM (inactive) | 3.28 µM (inactive) | 2.19 µM (inactive)
Cc1ccc(NC(=O)/C(=N\NC(N)=S)C(C#N)c2ccccc2C)cc1C (stereo unspecified) | > 100 µM (inactive) | > 100 µM (inactive) | > 100 µM (inactive) | > 100 µM (inactive) | > 100 µM (inactive) | > 100 µM (inactive) | > 100 µM (inactive) | > 100 µM (inactive) | > 100 µM (inactive)
Cc1c(C#N)c(=O)[nH]c(=O)n1CCN1CCN(C(=O)NCCCCCCNC(=O)N2CCN(CCn3c(C)c(C#N)c(=O)[nH]c3=O)CC2)CC1 |  | > 100 µM (inactive) | > 100 µM (inactive) | > 100 µM (inactive) | > 100 µM (inactive) | > 100 µM (inactive) | > 100 µM (inactive) | > 100 µM (inactive) | > 100 µM (inactive)
COc1ccccc1NC(=O)C1=C(C)NC(C)=C(C(=O)Nc2ccccc2OC)C1c1ccc(C)cc1 |  | 51.9 µM (inactive) | 24.3 µM (inactive) | 40 µM (inactive) | 76 µM (inactive) | 74.1 µM (inactive) | 56.5 µM (inactive) |  | > 100 µM (inactive)
COc1cccc2c1CCc1ccccc1CC2=O |  | > 100 µM (inactive) | > 100 µM (inactive) | > 100 µM (inactive) | > 100 µM (inactive) | > 100 µM (inactive) |  | > 100 µM (inactive) | > 100 µM (inactive)
COC1=CC(=O)[C@]2(C)[C@H](C1=O)C(C)[C@H]2c1ccc(OC)cc1 (stereo partly specified) |  |  | > 100 µM (inactive) | > 100 µM (inactive) |  | > 100 µM (inactive) | > 100 µM (inactive) | > 100 µM (inactive) | 
Cc1cccc(-c2nnc3s/c(=C\c4ccc(N(C)C)cc4)c(=O)n23)c1 |  |  | > 100 µM (inactive) | > 100 µM (inactive) | > 100 µM (inactive) | > 100 µM (inactive) | > 100 µM (inactive) | > 100 µM (inactive) | > 100 µM (inactive)
CCC(=O)N(O)C(C)(C)C |  | > 100 µM (inactive) |  |  |  | > 100 µM (inactive) | > 100 µM (inactive) | > 100 µM (inactive) | > 100 µM (inactive)
C[Si](C)(C)/N=C1\N2C(=NC1(C(F)(F)F)C(F)(F)F)Sc1ccccc12 | > 50 µM (inactive) | > 50 µM (inactive) | > 50 µM (inactive) | > 50 µM (inactive) | > 50 µM (inactive) | > 50 µM (inactive) | > 50 µM (inactive) | > 50 µM (inactive) | > 50 µM (inactive)
CN(C)c1nc(N(C)C)n2nc(-c3ccccc3[N+](=O)[O-])nc2n1 |  | > 100 µM (inactive) | > 100 µM (inactive) | 33.5 µM (inactive) | > 100 µM (inactive) | 86.3 µM (inactive) | > 100 µM (inactive) | 48.5 µM (inactive) | > 100 µM (inactive)
Cc1nc2c(nc1C)C(=O)c1cc(O)ccc1C2=O |  | 37.2 µM (inactive) |  | > 59 µM (inactive) | > 100 µM (inactive) | > 100 µM (inactive) | > 100 µM (inactive) | > 51.3 µM (inactive) | 57.4 µM (inactive)
